Entries after “also recorded” stand apart in the source; their conditions may differ.
Key:
[1] = system: Msm cells; test: Effect of screened compounds on cell viability (control plates of the M-PFC screen); conditions: at high concentrations
[2] = biological target: T1, Esat6-Cfp10 (Rv3875-Rv3874) interaction (Mycobacterium tuberculosis, UniProt P9WNK5+P9WNK7); test: M-PFC counter-screen with the Esat6-Cfp10 interacting pair; format: cell-based
T1 construct: The complete open reading frames (ORF) were cloned into pUAB100 and pUAB200; Gly10 linker + mDHFR fragment F[1,2]; Gly10 linker + mDHFR fragment F[3]; expressed in transfected cells; host or cells: Mycobacterium smegmatis

[3] = biological target: DevS(HKD)-DevR interaction (Mycobacterium tuberculosis, UniProt P9WMF9); test: M-PFC TRIM plate assay of the DevS(HKD)-DevR interaction; format: cell-based; conditions: 10 and 25 μg/mL, TRIM plates, FIG. 12
Description: Additionally, whether inhibition of DevR dimerization effected upstream interactions with DevR and DevS (Rv3132c), a corresponding sensor histidine kinase involved in the Mycobacterium dormancy pathway was investigated.

[4] = system: Msm; conditions: on 7H11
[5] = system: Mycobacterial cells; test: Viability of Mycobacterial cells with rapamycin; conditions: rapamycin concentrations as high as 200 μg/mL

Chain of DevS(HKD)-DevR interaction (P9WMF9 whole entry, looked up): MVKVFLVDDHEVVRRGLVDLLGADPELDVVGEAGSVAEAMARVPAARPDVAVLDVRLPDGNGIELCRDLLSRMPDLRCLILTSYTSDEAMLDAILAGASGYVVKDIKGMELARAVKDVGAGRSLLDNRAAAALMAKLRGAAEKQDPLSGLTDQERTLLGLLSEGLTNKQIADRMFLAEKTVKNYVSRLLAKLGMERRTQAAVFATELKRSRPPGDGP
T1 sequence (P9WNK7 whole entry, the tested form may be a part): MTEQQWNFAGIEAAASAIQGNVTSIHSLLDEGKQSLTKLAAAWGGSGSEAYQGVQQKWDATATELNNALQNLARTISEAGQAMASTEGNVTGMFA
T1 sequence (P9WNK5 whole entry, the tested form may be a part): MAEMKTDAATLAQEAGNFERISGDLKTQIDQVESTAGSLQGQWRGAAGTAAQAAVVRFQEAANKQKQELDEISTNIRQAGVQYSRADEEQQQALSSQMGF

Compound: Cl.Cn1c(=N)n(CC(=O)c2cc(C(C)(C)C)c(O)c(C(C)(C)C)c2)c2ccccc21 [1-(3,5-di-tert-butyl-4-hydroxyphenyl)-2-(2-imino-3-methyl-2,3-dihydro-1H-benzimidazol-1-yl)ethanone hydrochloride]
- effect on cell viability [1]: effect cell viability at high concentrations

Compound: CC(=O)NS(=O)(=O)c1ccc(NC(=O)CCc2ccccc2)cc1 [N-(4-[(acetylamino)sulfonyl]phenyl)-3-phenylpropanamide]
- effect on the Esat6-Cfp10 interaction [2]: unaffected
- disruption of the DevS(HKD)-DevR interaction [3]: disrupt the DevS(HKD)-DevR interaction; also recorded: capable of disrupting the DevS(HKD)-DevR interaction

Compound: COc1cc(Cc2cnc(N)nc2N)cc(OC)c1OC [TRIM, trimethoprim]
- TRIM concentration to which Msm is sensitive [4]: ~40 µg/mL

Compound: CO[C@H]1C[C@@H]2CC[C@@H](C)[C@@](O)(O2)C(=O)C(=O)N2CCCC[C@H]2C(=O)O[C@H]([C@H](C)C[C@@H]2CC[C@@H](O)[C@H](OC)C2)CC(=O)[C@H](C)/C=C(\C)[C@@H](O)[C@@H](OC)C(=O)[C@H](C)C[C@H](C)/C=C/C=C/C=C/1C [rapamycin]
- viability of the Mycobacterial cells [5]: not effected

From patent US8603751B2, “Mycobacterial disease detection, treatment, and drug discovery” (priority 2006, dated 2013)
